The values below come from patent publication US11422132B2, “Peptides and uses thereof for diagnosing and treating myasthenia gravis” (The Regents of the University of California, priority 2016, dated 2022).

In assay [1] the test system is mAb 198. The experiment in a line: Western blot of peptide-Fc conjugates with mAb 198. The note with it: Western blot FIG. 13. The format is binding, rat. From the text:
(§1) A conjugate has been engineered (FIG. 12B) that fuses the chimeric Torpedo-human peptide (SEQ ID NO:27) to an antibody Fc domain.
For orientation: A western blot detects proteins with antibodies after separation by electrophoresis.

In assay [2] the test system is mAb 132A. Kind of assay: Western blot of peptide-Fc conjugates with mAb 132A. In kind it is binding, rat. As to conditions: Western blot FIG. 13.
From the text: as §1

The test system of a further assay is mAb 334. Kind of assay: Western blot of peptide-IChBD fusion proteins probed with mAb 334. The format is binding, rat. The note with it: Table 1, Western blot of FIG. 5, Torpedo 39MIR single mutants. The procedure:
Chitin beads adsorbed with peptide-IChBD fusion proteins were run on an SDS-PAGE gel and transferred to a nitrocellulose membrane and assayed with the five mAbs.
To explore the effects of individual amino acid substitutions between the Torpedo and the human AChR MIR mimics, eight peptides were prepared, each with an amino acid substituted from the human sequence into the Torpedo sequence. The single amino acid substitutions in the Torpedo MIR were: N10K (SEQ ID NO:11), L12F (SEQ ID NO:12), R66K (SEQ ID NO:13), A70D (SEQ ID NO:14), I75V (SEQ ID NO:15), R79H (SEQ ID NO:16), D111Q (SEQ ID NO:17), and K115H (SEQ ID NO:18).

The subject of assay [3] is MIR directed Abs in EAMG sera. As to conditions: reference 14; cited from earlier work.
Assay [4] deals with mAb 198. The experiment in a line: Western blot of peptide-IChBD fusion proteins probed with mAb 198. The format is binding, rat.
The test system of assay [5] is mAb 132A. Kind of assay: Western blot of peptide-IChBD fusion proteins probed with mAb 132A. The format is binding, rat. As to conditions: Table 1, Western blot of FIG. 5, Torpedo 39MIR single mutants.
Assay [6] has as its system mAb 132A. The assay is described as above. In kind it is binding, rat.
In assay [7] the target is mAb 132A. As to conditions: IChBD fusion; reference 14; read-out: Kd of complex with mAb 132A; cited from earlier work.
For assay [8], the system named is antibodies in human MG serum samples. The experiment in a line: Dot blot of His-tagged peptides against human MG serum samples. The note with it: FIG. 11. In kind it is binding. From the text: Sample were obtained from either normal subjects (i.e., without a diagnosis of myasthenia gravis (MG)) or subjects diagnosed with MG. Samples were contacted with the Torpedo 39MIR peptide (SEQ ID NO:9), the human 39MIR peptide (SEQ ID NO:8), the K10N/V75I/[…] human 39MIR triple mutant (SEQ ID NO:26), or the K10N/D70A/V75I/Q111D human 39MIR quadruple mutant (SEQ ID NO:27).
His-tagged variants of the Torpedo 39MIR, human 39MIR, […] triple mutant, and K10N/D70A/V75I/Q111D quadruple mutant peptides were expressed and probed for binding to antibodies in human MG serum samples. The peptides were dot-blotted onto a membrane and probed for binding to antibodies in our human MG serum library. […] None of the His-tagged peptides bound any antibodies in normal human serum samples (FIG. 11). Although the triple mutant peptide (SEQ ID NO:26) bound better overall to mAb 35, mAb 132A, and mAb 198, the quadruple mutant peptide (SEQ ID NO:27) was better for binding antibodies in MG sera.

Assay [9] concerns mAb 35. Kind of assay: Western blot of peptide-IChBD fusion proteins probed with mAb 35. As to conditions: Table 1, Western blot of FIG. 5, Torpedo 39MIR single mutants. The format is binding, rat.
For assay [10], the system named is mAb 35. The description is as above. In kind it is binding, rat.
Where [11] appears, read: Table 2, Western blot of FIG. 7, human 39MIR multiple mutants.
The mark [12] stands for this setting: Table 3, single-substitution human 39MIR mutants.

pKd: −log10 of the molar value. “Also recorded” adds a separate entry of the source. Where no end group is shown, it is not given here.

As for “Torpedo peptide-Fc conjugate: Torpedo 39MIR peptide (SEQ ID NO:9) conjugated to a human IgG antibody Fc domain plus hinge (SEHETRLVANLLGGGSLRWNPADYGGIKKIRGSLDYTGK; also: conjugated to human IgG Fc with hinge)”, the “binding of mAb 198 to peptide-Fc conjugate” value in the assay on mAb 198 [1] is on record as “did not bind”. The “binding of mAb 132A to peptide-Fc conjugate” value with mAb 132A [2] was “did not bind”.
As to “SEHETRLVANLLGGGSLRWNPADYGGIKKIRGSLDYTGK [Torpedo 39MIR]”, in the assay with mAb 334, the “mAb 334, fold-change in binding relative to Torpedo 39MIR” value came to 1.00 fold-change. For the same substance, the “adsorption of MIR directed Abs in EAMG sera that block the binding of biotinylated mAb 132A to the Torpedo AChR” value in assay [3] is “able to adsorb all of the MIR directed Abs in EAMG sera”. The “mAb 198, fold-change in binding relative to Torpedo 39MIR” value in the assay on mAb 198 [4] (Table 1, Western blot of FIG. 5, Torpedo 39MIR single mutants) was determined as 1.00 fold-change; in the assay with mAb 198 [4] (setting [11]) it was 1.00 fold-change; in the assay on mAb 198 [4] (setting [12]), 1.00 fold-change. Besides, the “mAb 198 binding, result in words” value in the assay with mAb 198 [4] (Western blot) is “binds; also recorded: able to bind”. In addition, the “mAb 198 binding to the Torpedo mimic versus the human MIR mimic” value in the assay with mAb 198 [4] (Western blot FIG. 3, more strongly than to the human MIR mimic) was “about 50 times”. Moreover, the “mAb 132A, fold-change in binding relative to Torpedo 39MIR” value with mAb 132A [5], with mAb 132A [6] (setting [11]) and in the assay on mAb 132A [6] (setting [12]) was 1.00 fold-change in each case. Also, the pKd at mAb 132A [7] is 9.68. The “binding to antibodies in human MG serum samples” value in [8] is given as “did not bind any antibodies”. The “mAb 35, fold-change in binding relative to Torpedo 39MIR” value in the assay with mAb 35 [9], with mAb 35 [10] (setting [11]) and with mAb 35 [10] (setting [12]) was 1.00 fold-change throughout.

As usually defined, the pKd is the negative decadic logarithm of the Kd, by convention in mol/L.
